Here are results for 4 compounds from PubChem BioAssay AID190 (DTP/NCI, 2004).

Structures are written as SMILES. Values joined by “and” are separate entries in the source; they are usually repeats but may differ in a detail not shown here. Equal entries are not always repeated. Inconclusive results and toxic doses are left out.

The assay has as its system AKR/Lw mice, AKR lymphoma ip, median survival T/C. The experiment in a line: NCI In Vivo Anticancer Drug Screen. Data for tumor model Lymphoma AKR (Transplanted) (intraperitoneal) in AKR/Lw mice. Particulars: endpoint: median survival time, higher = longer survival. As to the method: The antitumor activity of compounds was measured in mice bearing transplantable tumors. Survival or tumor size were measured and the results are expressed as the measurement made in the treated group (T) divided by the measurement made in the vehicle treated control group (C). The tumor model used in this assay is Lymphoma AKR (Transplanted) (intraperitoneal) in AKR/Lw mice

For `O=P1(N(CCCl)CCCl)NCCCO1` (centres undefined), the T/C (dose: 0.5 mg/kg/injection, schedule: Q01DX015 (ip), vehicle: saline) is 117 % of control; the T/C (dose: 1.0 mg/kg/injection, schedule: Q01DX015 (ip), vehicle: saline) was 108 % of control; the T/C (dose: 1.5 mg/kg/injection, schedule: Q04DX003 (ip), vehicle: saline) is 91 % of control; the T/C (dose: 2.0 mg/kg/injection, schedule: Q01DX015 (ip), vehicle: saline) was 108 % of control; the T/C (dose: 2.0 mg/kg/injection, schedule: Q03HX032 (ip), vehicle: saline) was 119 % of control; the T/C (dose: 3.0 mg/kg/injection, schedule: Q04DX003 (ip), vehicle: saline) was 93 % of control. Also, the T/C runs as follows: (dose: 3.1 mg/kg/injection, schedule: Q01DX009 (ip), vehicle: saline) 100 % of control and 102 % of control; (dose: 4.0 mg/kg/injection, schedule: Q03HX032 (ip), vehicle: saline) 117 % of control; (dose: 6.0 mg/kg/injection, schedule: Q01DX009 (ip), vehicle: saline) 97 % of control; (dose: 6.0 mg/kg/injection, schedule: Q04DX003 (ip), vehicle: saline) 93 % of control; (dose: 6.2 mg/kg/injection, schedule: Q04DX003 (ip), vehicle: saline) 97 % of control; (dose: 6.25 mg/kg/injection, schedule: Q07DX005 (ip), vehicle: saline) 112 % of control. For the same compound, the T/C is 88 % of control (dose: 7.0 mg/kg/injection, schedule: Q01DX015 (ip), vehicle: saline); 112 % of control (dose: 8.0 mg/kg/injection, schedule: Q03HX032 (ip), vehicle: saline); 110 % of control and 118 % of control (dose: 10.0 mg/kg/injection, schedule: Q01DX009 (ip), vehicle: saline); 100 % of control (dose: 11.0 mg/kg/injection, schedule: Q01DX015 (ip), vehicle: saline); 97 % of control and 105 % of control (dose: 12.0 mg/kg/injection, schedule: Q04DX003 (ip), vehicle: saline); 92 % of control and 104 % of control and 116 % of control (dose: 12.5 mg/kg/injection, schedule: Q01DX001 (ip), vehicle: saline). Besides, the T/C by setting is: (dose: 20.0 mg/kg/injection, schedule: Q07DX004 (ip), vehicle: saline) 120 % of control; (dose: 24.0 mg/kg/injection, schedule: Q01DX015 (ip), vehicle: saline) 100 % of control and 117 % of control; (dose: 25.0 mg/kg/injection, schedule: Q07DX003 (ip), vehicle: saline) 152 % of control; (dose: 25.0 mg/kg/injection, schedule: Q10DX002 (ip), vehicle: saline) 152 % of control; (dose: 25.0 mg/kg/injection, schedule: Q10DX004 (ip), vehicle: saline) 119 % of control; (dose: 25.0 mg/kg/injection, schedule: Q14DX003 (ip), vehicle: saline) 178 % of control. In addition, the T/C was 103 % of control (dose: 25.0 mg/kg/injection, schedule: Q14DX004 (ip), vehicle: saline); 188 % of control (dose: 33.0 mg/kg/injection, schedule: Q09DX002 (ip), vehicle: saline); 172 % of control (dose: 37.5 mg/kg/injection, schedule: Q12DX002 (ip), vehicle: saline); 227 % of control (dose: 44.0 mg/kg/injection, schedule: Q07DX004 (ip), vehicle: saline); 160 % of control and 234 % of control (2×) (dose: 50.0 mg/kg/injection, schedule: Q09DX002 (ip), vehicle: saline); 186 % of control (dose: 50.0 mg/kg/injection, schedule: Q10DX002 (ip), vehicle: saline). Besides, the T/C (dose: 50.0 mg/kg/injection, schedule: Q12DX002 (ip), vehicle: saline) was 164 % of control; the T/C (dose: 50.0 mg/kg/injection, schedule: Q14DX003 (ip), vehicle: saline) was 177 % of control; the T/C (dose: 50.0 mg/kg/injection, schedule: Q14DX004 (ip), vehicle: saline) is 173 % of control; the T/C (dose: 50.0 mg/kg/injection, schedule: Q## X002 (ip), vehicle: saline) was 164 % of control; the T/C (dose: 65.5 mg/kg/injection, schedule: Q04DX003 (ip), vehicle: saline) is 236 % of control; the T/C (dose: 67.0 mg/kg/injection, schedule: Q07DX004 (ip), vehicle: saline) is 232 % of control. Also, the T/C is 234 % of control (dose: 67.0 mg/kg/injection, schedule: Q09DX002 (ip), vehicle: saline); 180 % of control and 226 % of control (dose: 75.0 mg/kg/injection, schedule: Q01DX001 (ip), vehicle: saline); 153 % of control (dose: 75.0 mg/kg/injection, schedule: Q01DX001 (ip), vehicle: water); 180 % of control (dose: 75.0 mg/kg/injection, schedule: Q04DX003 (ip), vehicle: saline); 200 % of control and 210 % of control and 231 % of control (dose: 75.0 mg/kg/injection, schedule: Q07DX003 (ip), vehicle: saline); 181 % of control (dose: 75.0 mg/kg/injection, schedule: Q07DX005 (ip), vehicle: saline). In addition, the T/C is 226 % of control (dose: 75.0 mg/kg/injection, schedule: Q12DX002 (ip), vehicle: saline); 154 % of control (dose: 100.0 mg/kg/injection, schedule: Q01DX001 (ip), vehicle: saline with Tween-80); 112 % of control (dose: 100.0 mg/kg/injection, schedule: Q01DX009 (ip), vehicle: saline); 200 % of control (dose: 100.0 mg/kg/injection, schedule: Q07DX004 (ip), vehicle: saline); 95 % of control (dose: 100.0 mg/kg/injection, schedule: Q07DX005 (ip), vehicle: saline); 117 % of control and 228 % of control (2×) (dose: 100.0 mg/kg/injection, schedule: Q09DX002 (ip), vehicle: saline). Further, the T/C is 175 % of control (dose: 100.0 mg/kg/injection, schedule: Q10DX004 (ip), vehicle: saline); 235 % of control (dose: 100.0 mg/kg/injection, schedule: Q14DX003 (ip), vehicle: saline); 105 % of control and 110 % of control (dose: 125.0 mg/kg/injection, schedule: Q07DX003 (ip), vehicle: saline); 179 % of control (dose: 150.0 mg/kg/injection, schedule: Q01DX001 (ip), vehicle: saline with Tween-80); 171 % of control and 196 % of control (dose: 150.0 mg/kg/injection, schedule: Q01DX001 (ip), vehicle: water); 95 % of control (dose: 150.0 mg/kg/injection, schedule: Q07DX005 (ip), vehicle: saline). Moreover, the T/C is, setting by setting: (dose: 150.0 mg/kg/injection, schedule: Q10DX004 (ip), vehicle: saline) 209 % of control; (dose: 200.0 mg/kg/injection, schedule: Q01DX009 (ip), vehicle: saline) 100 % of control; (dose: 200.0 mg/kg/injection, schedule: Q09DX002 (ip), vehicle: saline) 103 % of control; (dose: 200.0 mg/kg/injection, schedule: Q10DX002 (ip), vehicle: saline) 114 % of control; (dose: 300.0 mg/kg/injection, schedule: Q01DX001 (ip), vehicle: water) 171 % of control and 188 % of control; (dose: 500.0 mg/kg/injection, schedule: Q01DX001 (ip), vehicle: saline) 100 % of control.

As for `COc1cc([C@@H]2c3cc4c(c(O)c3C[C@H]3COC(=O)[C@@H]32)OCO4)cc(OC)c1O`, the T/C is 105 % of control (dose: 0.12 mg/kg/injection, schedule: Q01DX009 (ip), vehicle: Klucel (hydroxypropylcellulose) (HPC)) and 97 % of control (dose: 0.25 mg/kg/injection, schedule: Q01DX009 (ip), vehicle: Klucel (hydroxypropylcellulose) (HPC)).

Take `NC(=O)c1[nH]nc(C2OC(CO)C(O)C2O)c1O` (centres undefined): the T/C by setting is: (dose: 0.07 mg/kg/injection, schedule: Q01DX009 (ip), vehicle: saline) 86 % of control; (dose: 0.25 mg/kg/injection, schedule: Q04DX003 (ip), vehicle: saline) 105 % of control; (dose: 0.5 mg/kg/injection, schedule: Q04DX003 (ip), vehicle: saline) 105 % of control; (dose: 0.75 mg/kg/injection, schedule: Q04DX003 (ip), vehicle: saline) 88 % of control; (dose: 1.0 mg/kg/injection, schedule: Q04DX003 (ip), vehicle: saline) 90 % of control; (dose: 7.5 micrograms/kg/injection, schedule: Q01DX009 (ip), vehicle: saline) 110 % of control. Besides, the T/C by setting is: (dose: 15.0 micrograms/kg/injection, schedule: Q01DX009 (ip), vehicle: saline) 121 % of control; (dose: 30.0 micrograms/kg/injection, schedule: Q01DX009 (ip), vehicle: saline) 103 % of control; (dose: 60.0 micrograms/kg/injection, schedule: Q01DX009 (ip), vehicle: saline) 121 % of control.

In the case of `CCOC(=O)C(O)C(C#N)c1ccccc1` (centres undefined), the T/C (dose: 100.0 mg/kg/injection, schedule: Q01DX001 (ip), vehicle: other) was 103 % of control; the T/C (dose: 200.0 mg/kg/injection, schedule: Q01DX001 (ip), vehicle: other) is 103 % of control; the T/C (dose: 400.0 mg/kg/injection, schedule: Q01DX001 (ip), vehicle: other) was 100 % of control.
